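All cell lines were grown in 96-well plates and treated with compound for 48 hours. GI50 = concentration required for 50% inhibition of growth. The concentration for full growth arrest is given as TGI.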

The first assay concerns CCRF-CEM leukemia. Description: DTP human tumour cell line panel, 48 h.
What is called GI50 is the concentration at which growth is held to half of that of the control. The TGI is the concentration at which net growth stops. A low value points to greater sensitivity of the cells. For the molecule `O=C(CSc1nc2ccc([N+](=O)[O-])cc2[nH]1)Nc1ccc(F)c(Cl)c1`, the GI50 is 2750 nM and the TGI was more than 45700 nM.
`C=C1C(=O)O[C@H]2[C@H]1CC/C(CNC(=O)c1c[nH]c3ccc(F)cc13)=C\CC[C@@]1(C)O[C@@H]21`: the GI50 was 359 nM and the TGI came to 1830 nM.
As to `Cc1nn(-c2ccc(F)cc2)c2ncnc(Nc3ccc(NC(=O)Nc4ccc(Cl)c(C(F)(F)F)c4)cc3)c12`, the GI50 was 1570 nM and the TGI is 13200 nM.
In the case of `O=C(CCN1CCN(c2cnc3ccccc3n2)CC1)c1csc2ccccc12`, the GI50 was 19200 nM and the TGI is more than 100000 nM.
As for `Cc1ccn2c3c(c(C(=O)O)c2c1)C(=O)c1ccccc1C3=O`, the GI50 is more than 100000 nM and the TGI was more than 100000 nM.
In the case of `COc1cc2ncn(-c3cc(OCc4ccccc4Cl)c(C(N)=O)s3)c2cc1OC`, the GI50 was 78.1 nM and the TGI was more than 10600 nM.
For `Cc1ccc2c(C(C[N+](=O)[O-])c3cccs3)c(-c3ccccc3)[nH]c2c1` (stereo not given) the same measures were 1380 nM and more than 33300 nM.

In a further assay the test system is UO-31 renal. Put plainly: DTP human tumour cell line panel, 48 h.
As for `CC(=O)OCC1OC(O[C@@H]2C[C@H]3C(C)(C)[C@H](OC(C)=O)CC[C@]3(C)[C@H]3CCC4=C([C@@H](C)C[C@@H](O)[C@H](O)C(C)(C)O)CC[C@@]4(C)[C@@]32C)C(O)C(O)C1O` (stereo not given in full), the GI50 was 18400 nM and the TGI is 32700 nM.
As to `O=C(NNc1nc2c(F)cccc2n2cccc12)c1cnccn1`, the GI50 is 216 nM and the TGI turned out to be 13600 nM.
`CN=C(N)N/N=C(\c1ccccc1)c1ccc(Br)cc1`: the GI50 was 519 nM and the TGI worked out at 6280 nM.
For the molecule `COc1cc(/C=C\[N+](=O)[O-])ccc1O`, the GI50 is 1480 nM and the TGI amounted to 3250 nM.
For `C=CC(=O)N[C@H]1C=C(C)c2c(-c3cnc4ccccc4c3)c3c(N)ncnc3n2C1`, the GI50 is 610 nM and the TGI stood at 11500 nM.
Turning to `C[C@@H]1CC[C@@H]2[C@@H]1[C@H](OC(=O)/C=C/c1ccccc1)[C@]1(c3ccccc3)C[C@@H](OC(=O)CO)[C@@]2(C)O1`, the GI50 is 154 nM and the TGI turned out to be 305 nM.
Consider `O=C(c1ccc2ccccc2c1)c1c(C(F)(F)F)n([O-])c2cc(Cl)c(Cl)cc2[n+]1=O`, for which the GI50 was 1510 nM and the TGI was found to be 2830 nM.
In the case of `O=C(CSc1nc2ccc([N+](=O)[O-])cc2[nH]1)Nc1ccc(F)c(Cl)c1`, the GI50 was 1690 nM and the TGI came to 7800 nM.
On to `C=C1C(=O)O[C@H]2[C@H]1CC/C(CNC(=O)c1c[nH]c3ccc(F)cc13)=C\CC[C@@]1(C)O[C@@H]21`, for which the GI50 is 1140 nM and the TGI was determined as 2480 nM.
As to `Cc1nn(-c2ccc(F)cc2)c2ncnc(Nc3ccc(NC(=O)Nc4ccc(Cl)c(C(F)(F)F)c4)cc3)c12`, the GI50 is 1650 nM and the TGI was 4170 nM.
As for `O=C(CCN1CCN(c2cnc3ccccc3n2)CC1)c1csc2ccccc12`, the GI50 is 25100 nM and the TGI is 77500 nM.
Turning to `Cc1ccn2c3c(c(C(=O)O)c2c1)C(=O)c1ccccc1C3=O`, the GI50 is 25800 nM and the TGI was more than 100000 nM.
Regarding `COc1cc2ncn(-c3cc(OCc4ccccc4Cl)c(C(N)=O)s3)c2cc1OC`, the GI50 was 1140 nM and the TGI was more than 25000 nM.
Take `Cc1ccc2c(C(C[N+](=O)[O-])c3cccs3)c(-c3ccccc3)[nH]c2c1` (stereo not given): the GI50 is 2030 nM and the TGI was 6680 nM.

For a further assay, the system named is ACHN renal. Put plainly: DTP human tumour cell line panel, 48 h.
For the molecule `CC(=O)OCC1OC(O[C@@H]2C[C@H]3C(C)(C)[C@H](OC(C)=O)CC[C@]3(C)[C@H]3CCC4=C([C@@H](C)C[C@@H](O)[C@H](O)C(C)(C)O)CC[C@@]4(C)[C@@]32C)C(O)C(O)C1O` (stereo not given in full), the GI50 was 17800 nM and the TGI stood at 31900 nM.
Consider `O=C(NNc1nc2c(F)cccc2n2cccc12)c1cnccn1`, for which the GI50 is 250 nM and the TGI was 36000 nM.
For the molecule `CN=C(N)N/N=C(\c1ccccc1)c1ccc(Br)cc1`, the GI50 is 467 nM and the TGI was 10100 nM.
As for `COc1cc(/C=C\[N+](=O)[O-])ccc1O`, the GI50 is 2360 nM and the TGI stood at 6010 nM.
The like results for `C=CC(=O)N[C@H]1C=C(C)c2c(-c3cnc4ccccc4c3)c3c(N)ncnc3n2C1` were, in that order, 249 nM and 16800 nM.
Regarding `C[C@@H]1CC[C@@H]2[C@@H]1[C@H](OC(=O)/C=C/c1ccccc1)[C@]1(c3ccccc3)C[C@@H](OC(=O)CO)[C@@]2(C)O1`, the GI50 is 179 nM and the TGI is 597 nM.
Turning to `O=C(c1ccc2ccccc2c1)c1c(C(F)(F)F)n([O-])c2cc(Cl)c(Cl)cc2[n+]1=O`, the GI50 is 1590 nM and the TGI worked out at 2940 nM.
Regarding `O=C(CSc1nc2ccc([N+](=O)[O-])cc2[nH]1)Nc1ccc(F)c(Cl)c1`, the GI50 was 2350 nM and the TGI turned out to be 7930 nM.
The like results for `C=C1C(=O)O[C@H]2[C@H]1CC/C(CNC(=O)c1c[nH]c3ccc(F)cc13)=C\CC[C@@]1(C)O[C@@H]21` were, in that order, 1040 nM and 2380 nM.
In the case of `Cc1nn(-c2ccc(F)cc2)c2ncnc(Nc3ccc(NC(=O)Nc4ccc(Cl)c(C(F)(F)F)c4)cc3)c12`, the GI50 was 1750 nM and the TGI was 5620 nM.
As to `O=C(CCN1CCN(c2cnc3ccccc3n2)CC1)c1csc2ccccc12`, the GI50 was 19500 nM and the TGI is 42100 nM.
On to `Cc1ccn2c3c(c(C(=O)O)c2c1)C(=O)c1ccccc1C3=O`, for which the GI50 was more than 96400 nM and the TGI is more than 100000 nM.
On to `COc1cc2ncn(-c3cc(OCc4ccccc4Cl)c(C(N)=O)s3)c2cc1OC`, for which the GI50 was 1580 nM and the concentration for total growth inhibition (TGI) is more than 25000 nM.
Consider `Cc1ccc2c(C(C[N+](=O)[O-])c3cccs3)c(-c3ccccc3)[nH]c2c1` (stereo not given), for which the GI50 was 2150 nM and the TGI worked out at 13300 nM.

The values are drawn from PubChem BioAssay (NCI).
